Source: US20120165339A1, “CYCLOPROPANE DERIVATIVES” (EISAI R&D MANAGEMENT CO., LTD., priority 2010, published 2012)
Read-outs that look alike come from different tables or passages of the source.

What was measured:
[1] = test system: mice (C57BL/6NCrlCrLj); assay: Sleep experiment (EEG/EMG) in mice; format: in vivo; settings: oral administration, accumulated sleep over 3 hours, difference to vehicle-administration day
Protocol: As a method for measuring the influence of the present compound on sleep time, electroencephalogram (EEG) and electromyogram (EMG) measurements were carried out in mice (C57BL/6NCrlCrLj).
In order to measure brain waves and muscle signals, EEG and EMG electrode implantation was performed on individual mice, and the mice were then housed in a state in which they could freely move and habituate in individual recording cages for 1 week or longer. Thereafter, amplified EEG and EMG signals were digitally recorded.
Mice received either oral administration of vehicle or test compound in vehicle, after which sleep/wake behavior of mice was recorded for 3 hours.
For sleep analysis, automatic analysis software from Kissei Comtec Co., Ltd. was used to analyze EEG frequency and EMG activity signals in detail and to determine sleep and wake states. Thereafter, accumulated sleeping time over 3 hours was calculated.
The effect of the compound to increase sleep time was evaluated as the difference between sleeping time on the vehicle-administration day and the sleep time on the subsequent drug-administration day.

[2] = molecular target: T1, OX2 (Homo sapiens, UniProt O43614); assay: Antagonism PLAP reporter assay, HEK-293 cells expressing human OX2; format: cell-based; set-up: expressed in transfected cells; host or cells: HEK-293 cell line, expression vector pBabeCLIH; settings: HEK-293, 1 nM human OX-A; IC50 converted to Ki by Cheng-Prusoff equation
T1 sequence (O43614 1-444): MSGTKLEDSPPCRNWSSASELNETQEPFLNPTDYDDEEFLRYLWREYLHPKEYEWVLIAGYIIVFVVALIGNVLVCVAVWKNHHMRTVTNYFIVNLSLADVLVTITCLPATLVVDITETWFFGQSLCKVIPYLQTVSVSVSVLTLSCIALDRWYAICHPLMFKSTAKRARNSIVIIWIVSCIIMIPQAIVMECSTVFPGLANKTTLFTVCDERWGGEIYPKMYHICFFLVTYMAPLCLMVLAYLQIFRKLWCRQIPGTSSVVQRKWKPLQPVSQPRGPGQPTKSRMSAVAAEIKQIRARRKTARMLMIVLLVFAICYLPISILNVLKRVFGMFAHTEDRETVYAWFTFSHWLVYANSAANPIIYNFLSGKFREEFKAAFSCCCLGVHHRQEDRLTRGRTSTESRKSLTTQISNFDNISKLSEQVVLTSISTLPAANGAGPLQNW
Outline: (§1)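 HEK-293 cells expressing human OX1 or OX2 preincubated 1 h at room temperature with compound, then stimulated with 1 nM orexin-A plus 300 nM forskolin for about 18-24 h at 37 °C. Secreted PLAP read by luminescence; IC50 converted to Ki via Cheng-Prusoff using measured OX-A Kd.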

[3] = molecular target: T2, OX1 (Homo sapiens, UniProt O43613); assay: Antagonism PLAP reporter assay, HEK-293 cells expressing human OX1; format: cell-based; set-up: expressed in transfected cells; host or cells: HEK-293 cell line, expression vector pBabeCLIH; settings: HEK-293, 1 nM human OX-A; IC50 converted to Ki by Cheng-Prusoff equation
T2 sequence (O43613 1-425): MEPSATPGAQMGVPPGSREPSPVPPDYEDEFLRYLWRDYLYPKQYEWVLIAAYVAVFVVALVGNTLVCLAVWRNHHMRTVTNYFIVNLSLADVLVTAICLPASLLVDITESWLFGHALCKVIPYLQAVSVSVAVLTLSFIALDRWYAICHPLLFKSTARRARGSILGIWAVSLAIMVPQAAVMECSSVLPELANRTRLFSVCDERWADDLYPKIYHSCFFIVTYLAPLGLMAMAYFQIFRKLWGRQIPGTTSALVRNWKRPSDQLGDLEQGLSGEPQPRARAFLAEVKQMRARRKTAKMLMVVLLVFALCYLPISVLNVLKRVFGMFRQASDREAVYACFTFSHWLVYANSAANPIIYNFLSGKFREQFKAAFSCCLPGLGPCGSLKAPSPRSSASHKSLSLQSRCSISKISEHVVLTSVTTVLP
Outline: as §1

[4] = molecular target: T2, OX1; assay: Orexin-receptor binding ability, [125I]-OX-A, CHO cell membranes expressing OX1; set-up: expressed in transfected cells; host or cells: CHO cells (membrane preparation); settings: membranes of recombinant CHO cells, 0.2 nM [125I]-OX-A tracer; read-out: OX1 (IC50)
Outline: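 Buffer was 25 mM HEPES pH 7.5, 1 mM CaCl2, 4.5 mM MgCl2, 0.5% BSA, 0.1% sodium azide, 0.05% Tween-20 and 0.2% DMSO. Bound radioactivity was counted by scintillation, and IC50 values were reported.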

[5] = molecular target: T1, OX2; assay: Orexin-receptor binding ability, [125I]-OX-A, CHO cell membranes expressing OX2; set-up: expressed in transfected cells; host or cells: CHO cells (membrane preparation)
Outline: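 Competition binding used membranes from recombinant CHO cells (5 μg protein/assay) with 0.2 nM [125I]-OX-A tracer and varied compound concentrations. Incubation was 30 min at room temperature in 25 mM HEPES pH 7.5 with CaCl2, MgCl2, 0.5% BSA, 0.05% Tween-20 and 0.2% DMSO. Bound radioactivity was counted by scintillation after one wash, giving IC50 (nM).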

[6] = membranes of recombinant CHO cells, 0.2 nM [125I]-OX-A tracer, read-out: OX2 (IC50)

| Ki [2] | Ki [3] | IC50 [4] | IC50 [5, 6] | Compound | Sleep extended time (min/3 hrs) [1] | IC50 [5] |
| --- | --- | --- | --- | --- | --- | --- |
| 5.1 nM | 65.2 nM | 129 nM | 13 nM | COc1ccc(OC[C@@]2(c3ccccc3)C[C@H]2C(=O)Nc2ccc(C#N)cn2)cc1OC [Example 4, (1R,2S)—N-(5-cyanopyridin-2-yl)-2-[(3,4-dimethoxyphenyl)oxymethyl]-2-phenylcyclopropanecarboxamide] | 57 min/3 hrs |  |
| 31.4 nM | 406 nM | 166 nM | 19 nM | Cc1nc(C(F)(F)F)nn1CC[C@@]1(c2ccccc2)C[C@H]1C(=O)Nc1ccc(F)cn1 [Example 121] | 21.3 min/3 hrs |  |
| 10 nM | 140 nM | 98 nM | 3 nM | Cc1nc(C(F)(F)F)nn1CC[C@@]1(c2ccccc2)C[C@H]1C(=O)Nc1ccc(Cl)cn1 [Example 122] | 21.8 min/3 hrs |  |

| Compound | Ki [2] | Ki [3] | IC50 [4] | IC50 [5, 6] | Sleep extended time (min/3 hrs) [1] | IC50 [5] |
| --- | --- | --- | --- | --- | --- | --- |
| COc1ccc(S(=O)(=O)CC2(c3ccccc3)CC2C(=O)Nc2ccc(Cl)cn2)cc1OC (stereo not shown) [Example 134, N-(5-chloropyridin-2-yl)-2-[(3,4-dimethoxyphenyl)sulfonylmethyl]-2-phenylcyclopropanecarboxamide] | 268 nM | > 467 nM | 261 nM |  |  | 79 nM |
